Values of other authors, collected in patent US12384832B2 (priority 2019, dated 2025).
Read-outs that look alike come from different tables or passages of the source.

Target: TEM-1 (Escherichia coli, UniProt P62593)
Details: read-out: KM TEM-1, cited from earlier work

Chain of TEM-1 (P62593 24-286 limits assumed): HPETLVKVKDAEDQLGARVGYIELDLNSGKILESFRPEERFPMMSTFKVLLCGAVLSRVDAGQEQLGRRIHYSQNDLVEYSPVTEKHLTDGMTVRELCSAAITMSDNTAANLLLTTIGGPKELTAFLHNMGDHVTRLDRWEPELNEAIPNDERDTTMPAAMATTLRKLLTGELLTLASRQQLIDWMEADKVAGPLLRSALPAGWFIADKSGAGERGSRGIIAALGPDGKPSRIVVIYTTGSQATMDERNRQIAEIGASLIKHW

SMILES | Km (substrate hydrolysis) [µM] | Km [µM]
CC1(C)S[C@@H]2[C@H](NC(=O)[C@H](N)c3ccccc3)C(=O)N2[C@H]1C(=O)O [ampicillin] | 40 | 
CC1(C)S[C@@H]2[C@H](NC(=O)Cc3ccccc3)C(=O)N2[C@H]1C(=O)O [benzylpenicillin] | 26 | 
O=C(Cc1cccs1)N[C@@H]1C(=O)N2C(C(=O)[O-])=C(C[n+]3ccccc3)CS[C@H]12 [cefaloridine] |  | 244
